From patent publication US20200207835A1, “SRCP1-BASED THERAPY FOR DISEASES ASSOCIATED WITH PROTEIN AGGREGATION” (THE MEDICAL COLLEGE OF WISCONSIN, INC., priority 2017, published 2020)
Where a chain is given by its changes, count along the chain named. In names and notes the source's numbering stands. Read-outs that look alike come from different tables or passages of the source. Residues, ends and D or L forms follow the SMILES beside them. No end group written: not given here. *: point of attachment. Cbz = O=C(OCc1ccccc1)*

What was measured:
ATG8 [1] = experiment: Western blot for ATG8 after Hsp70 inhibition in Dictyostelium; type: cell-based, Dictyostelium discoideum; conditions: 80 μM Ver155008, 24 hours
Experimental: For Hsp70 inhibition, 1×10^7 cells were incubated either with DMSO or 80 μM VER155008 (ApexBio) for 24 hours. Following treatments, cells were imaged and/or harvested by spinning at 500 g at room temperature for 5 minutes. Cell pellets were washed three times with 1×PBS and lysed with ice-cold NETN (with protease inhibitor). Lysates were then sonicated twice for 10-15 seconds. To verify inhibition, samples were run on SDS-PAGE and analyzed by western blot for ATG8. Following sonication, lysates were subjected to BCA protein assay (ThermoFisher Scientific) and prepared for loading by the addition of 4× laemmli buffer and boiling for four minutes. Samples then loaded on SDS-polyacrylamide gels, ran at 175 V, and transferred onto an Immuno-blot PVDF membrane (Biorad) overnight at 30 V. Membranes were blocked in 5% milk in TBS with 0.1% Tween (TBST) and incubated in primary antibody overnight at 4° C. Following primary, membranes were washed for 10 minutes at room temperature three times with TBST and incubated in secondary for an hour at room temperature. Membranes were then washed for 10 minutes at room temperature three times with TBST and then incubated in buffer for enhanced chemiluminescence (50 mM Na2HPO4; 50 mM Na2CO3; 10 mM NaBO3.4H2O; 250 mM luminol; 90 mM coumaric acid).

^GFPHtt^ex1Q103 = type: cell-based, Dictyostelium discoideum; conditions: Dictyostelium
Experimental: (§1) For proteasome inhibition, 5×10^6 cells were incubated with either DMSO or 100 μM MG132 (Sigma-Aldrich) for 18 hours. Following treatment, cells were imaged and/or harvested by spinning at 500 g at room temperature for 5 minutes. Cell pellets were washed three times with 1×PBS and lysed with ice-cold NETN (with protease inhibitor). Lysates were then sonicated twice for 10-15 seconds. To verify inhibition, samples were run on SDS-PAGE and analyzed by western blot for ubiquitin.
For Hsp70 inhibition, 1×10^7 cells were incubated either with DMSO or 80 μM VER155008 (ApexBio) for 24 hours. Following treatments, cells were imaged and/or harvested by spinning at 500 g at room temperature for 5 minutes. Cell pellets were washed three times with 1×PBS and lysed with ice-cold NETN (with protease inhibitor). Lysates were then sonicated twice for 10-15 seconds. To verify inhibition, samples were run on SDS-PAGE and analyzed by western blot for ATG8.
For Dictyostelium cells, 1×10^7 cells were washed three times with ice-cold starvation buffer and then imaged with a 20× objective using the Evos FL Auto Imaging System.

Htt^Q46 = biological target: T1, Htt^Q46 (Homo sapiens, UniProt P42858, INS38QQQQQQQQQQQQQQQQQQQQQQQQQ); experiment: Thioflavin-T in vitro HttQ46 aggregation assay; type: biochemical; conditions: 3:1 peptide to HttQ46
T1 construct: Huntingtin exon-1 with 46 glutamines (Htt^Q46) in pET-32 was obtained from Addgene; pET-32 fusion tag (N, cleaved yes); host or cells: E. coli BL21
Experimental: Huntingtin exon-1 with 46 glutamines (Htt^Q46) in pET-32 was obtained from Addgene. Htt^Q46 was grown in BL21 cells at 37° C. to an optical density of 0.6 and induced with IPTG at 1 mM overnight at 16° C. After induction cells were spun down at 7,000 rpm for 5 minutes and resuspended in resuspension buffer (15 mM Tris-HCl buffer, pH 8.0). For lysis, lysozyme was added and cells were incubated at 4° C. for 45 minutes. To obtain soluble fraction, lysates were spun down at 12,000 rpm for 10 minutes, after which supernatant was added to 3 ml of Ni-beads (GoldBio) per 100 ml of lysate and tumbled for 4 hours at 4° C. Beads were then washed three times with resuspension buffer and then washed three more times with wash buffer (50 mM Tris-HCl pH 8.0, 150 mM NaCl, 1 mM PMSF, 1 mM EDTA). Protein was then eluted off beads by tumbling overnight at 4° C. in 25 mL of wash buffer with 250 mM imidazole.
Aggregation assays were performed as previously described in Kakkar, V. et al. Briefly, 15 μM Htt^46Q was mixed with 90 μM SRCP1 peptide (GenScript) (1:6, 1:3, 1:1.5) and 10 μM Thioflavin-T (Sigma-Aldrich). All samples were prepared on ice in buffer containing 20 mM Tris-HCl pH 8.0, 50 mM NaCl, 2 mM CaCl2). […] Fluorescence was measured with the excitation at 440 nm and emission at 480 nm, every 5 minutes using a Tecan Plate reader.

^GFPHtt^ex1Q74 = experiment: GFPHttex1Q74 aggregation in transfected HEK293 cells (fluorescent/confocal microscopy, western blot, filter trap assay); type: cell-based, human; conditions: for ability of SRCP1 mutant to suppress GFPHttex1Q74 aggregation: HEK293, 48 hours post-transfection, western blot and fluorescent microscopy; for ability of SRCP1 point mutant to suppress GFPHttex1Q74 aggregation: HEK293, fluorescence microscopy
Experimental: Transfections were performed with Lipofectamine 2000 (Invitrogen by ThermoFisher Scientific) and adapted from the manufacturer's instructions. Briefly, cells were plated on either 12-well or 6-well plates and transfected at 50-70% confluency. For 12-well transfections, 0.833 μg of DNA per well was mixed with 50 μl of OptiMEM (Gibco by Life Technologies) media and incubated for 5 minutes at room temperature. Lipofectamine 2000 in a 2:1, μl of lipofectamine: μg DNA ratio was mixed with 50 μl of OptiMEM media and incubated for 5 minutes at room temperature. DNA and Lipofectamine were mixed and incubated for 15 minutes at room temperature. Fresh media was added to cells prior to the addition of DNA and lipofectamine. For 6-well transfections, the same protocol is followed except that 1.25 μg of DNA per well and 100 μl of OptiMEM for dilution was used. Media was changed 24 hours post-transfection and cells were harvested 48 hours post-transfection. Prior to harvesting, HEK293 cells were washed three times with ice-cold 1×PBS. Samples were then lysed with either 150 μl of ice-cold NETN (with protease inhibitor) or 1× Laemmli Buffer and sonicated twice for 5-8 seconds.
(§2) For proteasome inhibition, 30 hours post-transfection cells would be replenished with DMEM containing either DMSO or 10 μM MG132 (Sigma-Aldrich) for 18 hours. Prior to harvesting, HEK293 cells were washed three times with ice-cold 1×PBS and imaged by fluorescent microscopy with a 20× objective using the Evos FL Auto Imaging System. Cells were then lysed with either 150 μl of ice-cold NETN (with protease inhibitor) or 1× Laemmli Buffer and sonicated twice for 5-8 seconds.
as §2, with “autophagy” for “proteasome”, “24” for “30”, “and treated with” for “containing”, “5 mM 3-Methyladenine” for “10 μM MG132”, “an additional 24” for “18”
For HEK293s′, slides were prepared by placing coverslips in 6-well plates and incubating with poly-L-lysine hydrobromide (Sigma-Aldrich) for an hour at room temperature. Coverslips were rinsed with 1×PBS three times prior to plating HEK293 cells. HEK293 cells were then transfected and fixed by incubation in 4% paraformaldehyde for 20 minutes at room temperature. Coverslips were mounted with ProLong Gold Antifade reagent and imaged with a 20× objective using the Evos FL Auto Imaging System or with a 40× objective using the Leica TCS SP5 Confocal Microscope System. For confocal, Z-stack images were obtained at […] intervals at 1024×1024 pixel resolution and merged using Fiji.
(§3) Following sonication, lysates were subjected to BCA protein assay (ThermoFisher Scientific) and prepared for loading by the addition of 4× laemmli buffer and boiling for four minutes. Samples then loaded on SDS-polyacrylamide gels, ran at 175 V, and transferred onto an Immuno-blot PVDF membrane (Biorad) overnight at 30 V. Membranes were blocked in 5% milk in TBS with 0.1% Tween (TBST) and incubated in primary antibody overnight at 4° C. Following primary, membranes were washed for 10 minutes at room temperature three times with TBST and incubated in secondary for an hour at room temperature. Membranes were then washed for 10 minutes at room temperature three times with TBST and then incubated in buffer for enhanced chemiluminescence (50 mM Na2HPO4; 50 mM Na2CO3; 10 mM NaBO3.4H2O; 250 mM luminol; 90 mM coumaric acid).
For HEK293 lysates, BCA protein assay was used to determine protein concentration. […]

ubiquitinated species = experiment: Western blot for ubiquitin after proteasome inhibition in Dictyostelium; type: cell-based, Dictyostelium discoideum; conditions: increasing concentrations of MG132, 18 hours
Experimental: as §1, with “Following” for “For proteasome inhibition, 5×10^6 cells were incubated with either DMSO or 100 μM MG132 (Sigma-Aldrich) for 18 hours. Following”
as §3

[2] = Solubility of SRCP1 peptide in vitro; type: physicochemical; conditions: data not shown
ATG8 [3] = conditions: 150 mM NH4Cl, 8 hours
Experimental: For autophagy inhibition, 1×10^7 cells were incubated either with vehicle or 150 μM NH4Cl (Sigma-Aldrich) for 8 hours. Following treatments, cells were imaged by fluorescent microscopy and plated on coverslips at a density of 2×10^6 cells per ml and allowing cells to adhere. Cells were then washed three times with 1×PBS and fixed with 100% ice-cold methanol at −20° C. for 10 minutes. Methanol was aspirated and cells were washed twice with 1×PBT (0.1% Triton X, 0.5% BSA in 1×PBS), incubated in blocking buffer (1% Triton X, 2% BSA in 1×PBT) for 30 minutes at room temperature, and put in primary Rb anti ATG8a (courtesy of Jason King, University of Sheffield) (1:5000) overnight at 4° C. Following primary cells were washed three times with 1×PBT and incubated in secondary goat anti rabbit (Jackson ImmunoResearch Laboratories; 711-166-152) for 2 hours at room temperature. Following secondary, cells were washed an additional three times with 1×PBT and mounted on slides with ProLong Gold Antifade reagent (Invitrogen by ThermoFisher Scientific). Slides were imaged with a Nikon eclipse 90i confocal microscope.

[4] = HEK293, 10 μM MG132 for 18 hours, absence of RFPSRCP1
[5] = HEK293, 5 mM 3-MA for 24 hours, without SRCP1

T1 sequence (P42858 with tags, fused parts or gaps with the stated changes): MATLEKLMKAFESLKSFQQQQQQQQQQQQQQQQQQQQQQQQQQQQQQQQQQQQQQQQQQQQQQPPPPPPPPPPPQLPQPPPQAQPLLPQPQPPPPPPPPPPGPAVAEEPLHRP

For N#Cc1ccc(COC[C@H]2O[C@@H](n3c(NCc4ccc(Cl)c(Cl)c4)nc4c(N)ncnc43)[C@H](O)[C@@H]2O)cc1 [VER-155008], the ATG8 protein levels (ATG8 [1]) was “leads to an increase of ATG8 proteins levels” and the “accumulation of aggregated GFPHttex1Q103” value (^GFPHtt^ex1Q103; 80 μM VER-155008, 24 hours) was “does not lead to accumulation of aggregated”.

In the case of “LIWGVYGFIR [SEQ ID NO:5, peptide of SRCP1 amino acids 61-70]”, the “HttQ46 aggregation in vitro, individual domain peptides” value (Htt^Q46) is reported as “sufficient to suppress Htt^Q46 aggregation in vitro”.

With CC(C)C[C@@H](C=O)NC(=O)[C@H](CC(C)C)NC(=O)[C@H](CC(C)C)NC(=O)OCc1ccccc1 [MG132, reference compound] (Cbz-Leu-Leu-Leu-aldehyde) the “insoluble GFPHttex1Q74” value (^GFPHtt^ex1Q74; [4]) was “increased in both the insoluble and soluble fraction”, the “soluble GFPHttex1Q74” value (^GFPHtt^ex1Q74; [4]) was “increased in both the insoluble and soluble fraction” and the “accumulation of aggregated GFPHttex1Q103” value (^GFPHtt^ex1Q103; 100 μM MG132, 18 hours) was “does not result in an accumulation of aggregated”. The “accumulation of ubiquitinated species” value (ubiquitinated species) was “leads to an accumulation of ubiquitinated species”.

With LIWGVYGFIRGGVGLVKWRG [SEQ ID NO:9] the solubility in vitro [2] was “remained soluble in vitro”.

For Cn1cnc(N)c2ncnc1-2 [3-MA, 3-Methyladenine, reference compound], the “aggregated GFPHttex1Q74” value (^GFPHtt^ex1Q74; [5]) was “significant increase in soluble and aggregated” and the “soluble GFPHttex1Q74” value (^GFPHtt^ex1Q74; [5]) was “significant increase in soluble and aggregated”.

In the case of “VI-A: SRCP1 61-70 peptide with amino acids V65 and I69 mutated to alanine (LIWGAYGFAR)”, the “HttQ46 aggregation in vitro, individual domain peptides” value (Htt^Q46) is reported as “loss in activity”.

In the case of Cl.N [NH4Cl], the ATG8 puncta (ATG8 [3]) is reported as “leads to an accumulation of large ATG8 puncta” and the “accumulation of aggregated GFPHttex1Q103” value (^GFPHtt^ex1Q103; 150 mM NH4Cl, 8 hours) is reported as “does not lead to accumulation of aggregated”.

B1: ^RFPSRCP1^61-70A: SRCP1 with amino acids 61-70 mutated to alanine (protein)
chain: MTILSTFTSFSNPPKLNKSSFSSSTGSSLSMGSNSFAWGGGWGGFGGPKGGSFNVDIAGNAAAAAAAAAAGGVGLVKWRGLQKGCKQP
modifications: left off: large carriers
notes: SRCP1 with amino acids 61-70 mutated to alanine
For B1, the “ability of SRCP1 mutant to suppress GFPHttex1Q74 aggregation” value (“ability of SRCP1 mutant” for short) (^GFPHtt^ex1Q74) was “lost the ability to suppress”.

B2: ^RFPSRCP1^V65A: SRCP1 point mutant, V65 mutated to alanine (protein)
chain: B1 chain with A61L, A62I, A63W, A64G, A66Y, A67G, A68F, A69I, A70R
modifications: left off: large carriers
notes: SRCP1 point mutant, V65 mutated to alanine
For B2, the “ability of SRCP1 point mutant to suppress GFPHttex1Q74 aggregation” value (^GFPHtt^ex1Q74) was “resulted in a decrease in SRCP1 function”.

B3: ^RFPSRCP1^I69A: SRCP1 point mutant, I69 mutated to alanine (protein)
chain: B1 chain with A61L, A62I, A63W, A64G, A65V, A66Y, A67G, A68F, A70R
modifications: left off: large carriers
notes: SRCP1 point mutant, I69 mutated to alanine
In the case of B3, the “ability of SRCP1 point mutant to suppress GFPHttex1Q74 aggregation” value (^GFPHtt^ex1Q74) is reported as “resulted in a decrease in SRCP1 function”.

B4: ^RFPSRCP1^71-80A: SRCP1 with amino acids 71-80 mutated to alanine (protein)
chain: MTILSTFTSFSNPPKLNKSSFSSSTGSSLSMGSNSFAWGGGWGGFGGPKGGSFNVDIAGNLIWGVYGFIRAAAAAAAAAALQKGCKQP
modifications: left off: large carriers
notes: SRCP1 with amino acids 71-80 mutated to alanine
With B4 the “ability of SRCP1 mutant” value (^GFPHtt^ex1Q74) was “retained full activity”.

B5: ^RFPSRCP1^ST1: SRCP1 with all N-terminal serine and threonine residues mutated to alanine (protein)
chain: MAILAAFAAFANPPKLNKAAFAAAAGAALAMGANAFAWGGGWGGFGGPKGGSFNVDIAGNLIWGVYGFIRGGVGLVKWRGLQKGCKQP
modifications: left off: large carriers
notes: SRCP1 with all N-terminal serine and threonine residues mutated to alanine
With B5 the “ability of SRCP1 mutant” value (^GFPHtt^ex1Q74) was “did not disrupt SRCP1's ability to suppress polyQ aggregation”.
